Data as given in patent US20250325565A1, “ERAVACYCLINE FOR TREATING CANCER” (B. G. NEGEV TECHNOLOGIES AND APPLICATIONS LTD., priority 2022, published 2025).

What was measured:
Type in all cases: cell-based, human
BxPC-3 cells [1] = experiment: XTT cell proliferation assay, BxPC-3
Method: (§1) Human PDAC (AsPC-1, BxPC-3, Panc-1 scr, Panc-1 p53-R273H knock-out (KO) hTERT-HPNE), breast (MCF-7), lung (A549), and colon (HT-29) cancer cell lines were purchased from the American Type Culture Collection (ATCC). The MCF-7, A549, Panc-1 scr, Panc-1 p53 KO and HT-29 cell lines were grown in Dulbecco's Modified Eagle Medium (DMEM; Biological Industries, Beit HaEmek (BI), Israel), and the BxPC-3 and AsPC-1 cell lines were cultured in Roswell Park Memorial Institute-1640 (RPMI-1640; BI, Israel) medium. All media was supplemented with 10% fetal bovine serum (FBS), 200 μM L-glutamine (BI), and 1% penicillin-streptomycin (BI). Cells were cultured at 37° C. in a 5% CO2 humidified incubator.
Eravacycline dihydrochloride (MedChem Express (MCE)) was dissolved in […] (DDW). Tigecycline (MCE) and omadacycline (MCE) were dissolved in dimethyl sulphoxide (DMSO). All drugs were prepared as 100 mM stock solutions. All cell lines were treated with DMSO as a control (less than 0.1%) or tigecycline, omadacycline, or eravacycline (at the indicated concentrations) for 72 hours. Cell viability and proliferation were determined using the XTT Cell Proliferation Assay Kit (Promega).
(§2) The XTT Cell Proliferation Assay Kit was used to determine cell viability and proliferation. Cells were seeded in 96-well plates at a density of 4,000 cells per well and allowed to attach overnight in a 5% CO2 incubator at 37° C. After overnight incubation, cells were treated with culture medium or in a medium containing tigecycline, omadacycline, or eravacycline at different concentrations (1, 2, 5, 10, 25, and 50 μM) for the indicated time period. Then, 50 μl XTT reaction solution (0.1 ml activation solution+5 ml XTT reagent solution) was added to each well, and the plate was incubated at 37° C. for two hours. After shaking the plate gently to distribute the dye in the wells, the absorbance was measured with a spectrophotometer (Bio-RadiMark Microplate Absorbance reader) at a wavelength of 450 nm and a reference wavelength of 655 nm.
To evaluate the half maximal inhibitory concentration (IC50) of tetracycline derivatives on five different cell lines (MCF-7, A549, HT-29, BxPC-3, and AsPC-1), the cells were seeded and allowed to attach overnight. All cells were washed with phosphate buffered saline (PBS) and then cultured in fresh media containing the drugs tigecycline, omadacycline, or eravacycline at an increasing concentration (0-50 μM) for 72 h. Inhibition of cell proliferation was determined using the XTT Cell Proliferation Assay Kit.
To investigate the effect of tetracycline derivatives on cell proliferation in human breast, lung, colon, and PDAC cells, the inventors treated all cell lines (MCF-7, A549, HT-29, BxPC-3, and AsPC-1) with different concentrations of tigecycline, omadacycline, and eravacycline (1, 2, 5, 10, 25, and 50 μM), with medium used as a control, for 72 h. Then, an XTT assay was performed to determine the growth inhibition rate.

HPNE cell line = experiment: XTT cell proliferation assay, normal pancreatic HPNE cells; details: 72 h
Method: as §1
as §2, with “Then, 50 μl XTT reaction solution (0.1 ml activation solution+5 ml XTT reagent solution) was added to each well, and the plate was incubated at 37° C. for two hours.” left out, “nm. […]” for “nm.”

BxPC-3 cells [2] = experiment: Annexin V-FITC/PI apoptosis assay by flow cytometry; details: 72 h
Method: Cells were cultured in 6-well plates containing different concentrations of eravacycline, gemcitabine, or doxorubicin (medium alone was used as a control) for 72 h. Afterward, cells were collected by trypsinization for flow cytometry analysis. Cells were resuspended in 100 μl binding buffer, then stained with 5 μl propidium iodide (PI) and 5 μl Annexin V-FITC (Annexin V-FITC Apoptosis Detection Kit with PI-BioLegend) at room temperature for 20 min in the dark. Finally, the cells were collected and analyzed by FACS (Sony SP6800 Spectral cell analyzer), and the data was analyzed using SP6800 spectral analyzer software.
To examine eravacycline's effect on cell growth inhibition and the mechanism underlying this, the induction of apoptosis activated by eravacycline treatment in BxPC-3 cells was investigated by performing an Annexin V-FITC (V-fluorescein isothiocyanate) apoptosis assay. The effects of the treatment of BxPC-3 cells with increasing concentrations of eravacycline was evaluated after 72 h. A positive control of 1 μM of doxorubicin was evaluated at the same time point.

## CN(C)[C@@H]1C(O)=C(C(N)=O)C(=O)[C@@]2(O)C(O)=C3C(=O)c4c(O)c(NC(=O)CN5CCCC5)cc(F)c4C[C@H]3C[C@@H]12 [eravacycline, (4S,4aS,5aR,12aS)-4-(Dimethylamino)-7-fluoro-3,10,12,12a-tetrahydroxy-1,11-dioxo-9-[2-(pyrrolidin-1-yl)acetamido]-1,4,4a,5,5a,6,11,12a-octahydrotetracene-2-carboxamide]
BxPC-3 cells [1]; BxPC-3, 1 μM, 72 h
  decrease in cell growth: 27%
BxPC-3 cells [1]; BxPC-3, 10 μM, 72 h
  decrease in cell growth: 63%
BxPC-3 cells [1]; BxPC-3, 50 μM, 72 h
  decrease in cell growth: 93%
BxPC-3 cells [1]; BxPC-3, 72 h, 1-50 μM
  effect on cell survival / viability (in words): strong and selective viability reduction
BxPC-3 cells [1]; BxPC-3, 72 h, concentration-dependent, 1-50 μM
  suppression of proliferation, up to: 90-93%
BxPC-3 cells [1]; Homo sapiens, BXPC-3, 72 h, read-out: decrease in cell growth / viability, BxPC-3, 25 μM, 72 h
  cytotoxicity at 25 µM: 93%
BxPC-3 cells [1]; Homo sapiens, BxPC-3, 72 h, XTT, read-out: IC50, inhibition of cell proliferation
  IC50: 3.57 µM
BxPC-3 cells [1]; human, 72 h, 25 μM
  decrease in cell growth / viability: 90%
HPNE cell line
  effect on cell proliferation of normal pancreatic cells (in words): significantly less inhibition than the other PDAC cell lines
BxPC-3 cells [2]; BxPC-3, 10 μM
  increase in the number of apoptotic cells: three-fold
BxPC-3 cells [2]; BxPC-3, 25 μM
  apoptosis: ~70%
